Measurements from PubChem BioAssay (NCI).
“And” between values parts separate entries of the source, which are not always exact repeats. Equal entries are not always repeated.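 Results reflect a 48-hour exposure of cells in 96-well plates to compound at five concentrations. GI50 is the concentration that inhibits growth by half. TGI marks complete inhibition of growth.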

What was measured:
Assay in all cases: NCI-60 cell line screen, 48 h
MCF7 breast = system: MCF7 breast
MOLT-4 leukemia = system: MOLT-4 leukemia
OVCAR-4 ovarian = system: OVCAR-4 ovarian
KM12 colon = system: KM12 colon
NCI-H460 lung = system: NCI-H460 lung
UACC-257 melanoma = system: UACC-257 melanoma
SF-268 CNS = system: SF-268 CNS
U251 CNS = system: U251 CNS
HOP-62 NSCLC = system: HOP-62 NSCLC
TK-10 renal = system: TK-10 renal
UACC-62 melanoma = system: UACC-62 melanoma
BT-549 breast = system: BT-549 breast
K-562 leukemia = system: K-562 leukemia
DU-145 prostate = system: DU-145 prostate
NCI-H522 lung = system: NCI-H522 lung
HOP-92 NSCLC = system: HOP-92 NSCLC
UO-31 renal = system: UO-31 renal

SMILES | TGI (MCF7 breast) [µM] | TGI (MOLT-4 leukemia) | TGI (OVCAR-4 ovarian) [µM] | TGI (KM12 colon) [µM] | TGI (NCI-H460 lung) [µM] | TGI (UACC-257 melanoma) [µM] | TGI (SF-268 CNS) [µM] | TGI (U251 CNS) [µM] | TGI (HOP-62 NSCLC) [µM] | TGI (TK-10 renal) [µM] | TGI (UACC-62 melanoma) [µM] | TGI (BT-549 breast) [µM] | TGI (K-562 leukemia) | TGI (DU-145 prostate) [µM] | TGI (NCI-H522 lung) [µM] | TGI (HOP-92 NSCLC) [µM] | TGI (UO-31 renal) [µM] | GI50 (MOLT-4 leukemia) [µM] | GI50 (OVCAR-4 ovarian) [µM] | GI50 (HOP-92 NSCLC) [µM]
COc1ccc2c(c1)CCC(CN1CCN(CCOC(c3ccc(F)cc3)c3ccc(F)cc3)CC1)C2O (stereo not drawn) | 39.7 | 36.2 µM | 32.9 | 63.2 | 44.9 | 28.1 | 27 | 26.1 | 34.5 | 29.7 | 24.2 | 27.5 | 45 µM | 34.8 | 28.6 | 26.7 | – | – | – | –
Cc1nc2c(=O)n(C)c(=O)nc-2n(CCO)c1C | > 100 | > 100 µM | > 100 | > 100 | > 100 | > 100 | > 100 | > 100 | > 100 | > 100 | > 100 | > 100 | > 100 µM | > 100 | > 100 | > 100 | > 100 | – | – | –
CCOC(=O)c1c(C)noc1/N=N/N(CCO)CCO | > 100 | 60.3 µM | > 100 | > 100 | > 100 | 86.5 | > 100 | > 100 | > 100 | > 100 | > 100 | > 100 | > 100 µM | > 100 | 70.7 | 88.5 | 77.2 | – | – | –
OC12CC3c4ccccc4NC3C3Oc4cccc5c4C31CCN(CC1CC1)C2C5 (stereo not drawn) | 32.8 | 73.1 µM | 55.5 | 37.3 | 32.4 | 32.4 | 41.1 | 31.1 | 32.8 | 31.1 | 33.3 | 34.7 | 52.6 µM | 36.5 | 39.7 | 24.5 | 30.4 | – | – | –
CC(C)Oc1c(C2(c3ccccc3O)SCCCS2)c(=O)c1=O | > 100 | > 100 µM | > 100 | > 100 | > 100 | > 100 | > 100 | > 100 | > 100 | > 100 | > 100 | > 100 | – | > 100 | 58.9 | > 100 | > 100 | – | – | –
COc1cc(/C=C2\N=C(c3ccccc3)N(c3nc4cc(C)c(C)cc4s3)C2=O)cc(OC)c1OC | 43 | 30.3 µM | > 100 | 71.2 | > 100 | > 100 | > 100 | 66.1 | 66.6 | > 100 | > 100 | > 100 | > 100 µM | > 100 | – | 64.8 | > 100 | – | – | –
CCCC(=O)OCC1(CO)C/C(=C/CC(C(C)C)C(C)C)C(=O)O1 (stereo not drawn) | > 100 | – | > 100 | > 100 | > 100 | > 100 | > 100 | > 100 | > 100 | > 100 | > 100 | > 100 | – | > 100 | > 100 | > 100 | > 100 | – | – | –
Nc1nc(N)c2ncn(-c3ccc(Cl)c(Cl)c3)c2n1 | > 100 | 42.5 µM | > 100 | 97.5 | – | 57.9 | > 100 | > 100 | 87.7 | 70.6 | 43 | 72.6 | – | > 100 | > 100 | > 100 | 59.2 | – | – | –
COC(=O)C1=C([C@H]2COC(C)(C)O2)[C@H]2C[C@@H]1[C@@H]1OC(C)(C)O[C@@H]12 | > 100 | > 100 µM | > 100 | > 100 | > 100 | > 100 | > 100 | > 100 | > 100 | > 100 | > 100 | > 100 | > 100 µM | > 100 | > 100 | > 100 | > 100 | – | – | –
Cc1cc(S(=O)(=O)Nc2nc3ccccc3[nH]2)c(S)cc1Cl | > 100 | > 100 µM | > 100 | > 100 | > 100 | > 100 | > 100 | 78.3 | > 100 | > 100 | > 100 | > 100 | > 100 µM | > 100 | > 100 | > 100 | > 100 | – | – | –
O=S(=O)(O)c1cc(N=Nc2cc(S(=O)(=O)O)c3ccccc3c2O)ccc1/C=C/c1ccc(N=Nc2cc(S(=O)(=O)O)c3ccccc3c2O)cc1S(=O)(=O)O | > 1000 | 51.1 µM and 82.5 µM | > 1000 | > 365 | > 881 | > 1000 | > 1000 | > 1000 | > 1000 | 220 | > 628 | 552 | > 67.1 µM and 78.1 µM | 712 | > 669 | > 463 | > 527 | 36.3 | > 807 | > 262
Cc1ccc(S(=O)(=O)NC(=O)NC(C(=O)O)C(C)O)cc1 (stereo not drawn) | > 100 | > 100 µM | > 100 | > 100 | > 100 | > 100 | > 100 | > 100 | > 100 | > 100 | > 100 | > 100 | > 100 µM | > 100 | > 100 | > 100 | > 100 | – | – | –
FC(F)(F)c1ccc2c(c1)nc(Cc1ccc(Cl)c(Cl)c1)n2CC1CCCN2CCCCC12 (stereo not drawn) | 62.9 | > 100 µM | > 100 | > 100 | 52.4 | 41 | > 100 | 59.7 | > 100 | 74.9 | 30.2 | 85.2 | > 100 µM | > 100 | 30.8 | > 100 | – | – | – | –
CCNc1nc(N)c(C(=O)c2cccs2)s1 | > 100 | 60.7 µM | 77.6 | 46.7 | > 100 | > 100 | > 100 | > 100 | > 100 | > 100 | 51.8 | > 100 | > 100 µM | > 100 | > 100 | > 100 | > 100 | – | – | –
COc1ccc2[nH]c3c([N+](=O)[O-])ccc(Cl)c3c(=O)c2c1 | > 84.8 | 12.8 µM | 28.7 | > 73.4 | > 95.4 | 16.5 | 53.6 | > 64.1 | 73.6 | > 56.6 | 34.5 | 32.1 | 13.2 µM | > 100 | 36.9 | 29.7 | 35.5 | – | – | –
CC1(C)C(=O)N(O)C(C)(C)N1N=O | > 10 | > 10 µM | > 10 | > 10 | > 10 | > 10 | > 10 | > 10 | > 10 | > 10 | – | > 10 | > 10 µM | > 10 | > 10 | > 10 | > 10 | – | – | –
COC(=O)/C(=N\N)C(C(=O)C(=O)Nc1cccc([N+](=O)[O-])c1)c1nc2ccc(C(=O)c3ccccc3)cc2[nH]c1=O (stereo not drawn) | > 100 | 89.8 µM | > 100 | > 100 | > 100 | > 100 | > 100 | > 100 | > 100 | > 100 | > 100 | > 100 | – | > 100 | > 100 | > 100 | > 100 | – | – | –
CC(=O)/C(N=Nc1ccc(-n2c(C)nc3ccc(Br)cc3c2=O)cc1)=C(/C)O | > 100 | > 100 µM | – | > 100 | > 100 | > 100 | > 100 | > 100 | > 100 | > 100 | > 100 | > 100 | > 100 µM | > 100 | – | > 100 | > 100 | – | – | –
O=c1oc2ccccc2cc1-c1csc(Nc2cc(Cl)cc(Cl)c2)n1 | 61.4 | > 100 µM | – | > 58.6 | > 100 | > 100 | > 100 | 11.7 | 17.9 | 85.2 | > 100 | > 100 | > 100 µM | > 100 | 96.6 | > 58.3 | 7.53 | – | – | –
C/C(=N/NC(=S)N(C)CCc1ccccn1)c1cnccn1 | 30.6 | > 71.1 µM | 5.93 | 19.4 | 13 | 34.6 | 14.9 | 12.3 | 9.62 | 14.8 | – | 10.2 | > 100 µM | > 32 | 20.8 | 21.2 | 0.272 | – | – | –
O=C1N[C@H]2C(=O)c3c(Cl)sc(Cl)c3[C@H]2O1 | 52.5 | 8.22 µM | – | 44.2 | 39.4 | 23 | 22.4 | 11.6 | 34.5 | 70.8 | 28.2 | 54.5 | 5.09 µM | 23.7 | 8.83 | 26.4 | 3.24 | – | – | –
CCOC(=O)CCC(NC(=O)c1ccc(Nc2cnc3cc(C(F)(F)F)ccc3n2)cc1)C(=O)OCC (stereo not drawn) | > 31.6 | > 100 µM | > 100 | > 100 | > 100 | > 100 | > 78.4 | 15.3 | 34.7 | > 100 | – | 49 | > 100 µM | > 100 | > 100 | 49.6 | > 100 | – | – | –
CCOC(=O)CCSS(=O)(=O)C(F)(F)F | > 100 | – | > 100 | > 100 | > 100 | > 100 | – | > 100 | > 100 | > 100 | > 100 | > 100 | – | > 100 | – | > 100 | > 100 | – | – | –
CCOC(=O)/C(=C\c1ccnc2ccccc12)P(=O)(OCC)OCC | 14.7 | > 100 µM | 6.61 | 13.9 | 8.72 | 14 | 6.3 | 9.51 | 5.91 | 14 | 10.4 | 4.22 | 9.96 µM | 7.52 | 3.18 | 6.93 | – | – | – | –
CCCCC1C(=O)N(c2ccc(S(=O)(=O)Nc3ccccn3)cc2)N(c2ccc(O)c(C(=O)O)c2)C1=O (stereo not drawn) | > 100 | > 100 µM | > 100 | > 100 | > 100 | > 100 | > 100 | > 100 | – | – | > 100 | > 100 | > 100 µM | > 100 | > 100 | > 100 | > 100 | – | – | –
COc1ccc(/C=N/NC(=O)c2ccccc2Nc2ccccc2C(=O)N/N=C/c2ccc(OC)cc2)cc1 | > 100 | > 100 µM | > 100 | > 100 | > 100 | > 100 | > 100 | > 100 | > 100 | > 100 | > 100 | > 100 | > 100 µM | > 100 | – | > 100 | > 100 | – | – | –
CCOc1ncn(-c2ccc(NC(=S)Nc3cnccn3)cc2)n1 | > 10 | > 10 µM | > 10 | > 10 | > 10 | > 10 | > 10 | > 10 | – | > 10 | > 10 | > 10 | > 10 µM | > 10 | > 10 | > 10 | > 10 | – | – | –
c1cc2[nH]snc2c2cncc12 | > 100 | > 100 µM | > 100 | > 100 | > 100 | > 100 | > 100 | – | > 100 | > 100 | > 100 | > 100 | > 100 µM | > 100 | > 100 | 85.7 | > 100 | – | – | –
